{
  "source": "paper PMC6030159",
  "about": "(Scientific Reports, 2018)",
  "key": {"[1]": {"tested_on": "MYCN-non-amplified neuroblastoma cells (SK-N-F1, SK-N-AS, SK-N-RA)", "assay": "Resazurin growth assay, MYCN-non-amplified neuroblastoma cell lines", "type": "cell-based", "description": "HEK293A, MCF7, MDA-MB231, SK-N-F1, SK-N-RA, SK-N-AS, COS-7, HeLa, BJ cells, and Rat1 fibroblasts TGR-1 (wt), HO15.19 (MYC knockout) and HOmyc3 (MYC reconstituted HO15.19) were maintained in DMEM. The neuroblastoma cell lines Kelly, IMR-32 and SK-N-DZ, and the Burkitt’s lymphoma cell lines Mutu, Daudi and ST486 were kept in RPMI. SK-N-BE(2) cells were maintained in a 1:1 mixture of EMEM and F12 media, supplemented with 1% non-essential amino acid solution (NEAA) and 0.5% Glutamine. U2OS-MYC-ER cell lines were cultured in phenol-red free DMEM and treated with 100 nM 4-hydroxytamoxifen (HOT) (Sigma-Aldrich) to activate MYC-ER. IMR-90 was maintained in MEM. […]\nCell proliferation assays. Cell growth and viability was estimated in triplicates with WST-1 (Roche) or Resazurin sodium salt (Sigma-Aldrich) assays in medium at 37°C and 5% CO 2 for 2 hours after which absorbance or fluorescence, respectively, was measured with an Omega Fluostar (BMG Labtech) in a 96 well plate format. […] Images were taken in the green (FITC) and blue (DAPI) channels using a fluorescence microscope (ImageXpress Micro, Molecular Devices). […] After 16 days, the colonies were stained with 100 µg/ml MTT (Sigma) overnight and colonies were counted.\nImmunohistochemistry. […] For quantification, areas with positive TUNEL and Ki67 staining were measured using Image J software. […]"}, "MYCN:MAX interaction": {"tested_on": "T1, MYCN:MAX interaction", "T1 construct": "from tissue; host or cells: SK-N-DZ xenograft tumour grown in athymic nude mice", "assay": "isPLA MYCN:MAX on xenograft tumor tissue", "type": "in vivo, mouse", "settings": "20 mg/kg i.p. daily, 1–2 weeks, vs vehicle", "description": "isPLA for tumor tissue was performed using 4% formaldehyde fixed paraffin embedded material. The tissue slides were deparaffinized at 65 °C for an hour, rehydrated in 1X Aqua De Par (Biocare Medical) and incubated at 80 °C for 10 min in a pressure chamber (Decloaking Chamber™ Biocare Medical). Slides were soaked in antigen retrieval buffer (10 mM sodium citrate, pH 6.0) and heated in the pressure chamber to 100 °C for 20 minutes, after which the temperature was lowered to 65 °C. Slides were removed from the chamber and cooled down to room temperature. The antigen retrieval buffer was replaced gradually by deionized H2O for 15 min. Slides were placed in blocking buffer (Duolink® isPLA kit) for 1.5 hours at 37 °C followed by an extra blocking step using the Mouse on Mouse (M.O.M.™) basic kit (Vector Laboratories) according to manufacturers’ protocol. isPLA was performed as above.\nThe last dose was administered 3 hrs before termination."}, "[2]": {"tested_on": "TGR-1 (wt) Rat1 fibroblasts", "assay": "WST-1 growth assay, TGR-1 (wt) Rat1 fibroblasts", "type": "cell-based, rat", "description": "Cell proliferation assays. Cell growth and viability was estimated in triplicates with WST-1\n(Roche) or Resazurin sodium salt (Sigma-Aldrich) assays in medium at 37°C and 5% CO 2 for\n2 hours after which absorbance or fluorescence, respectively, was measured with an Omega\nFluostar (BMG Labtech) in a 96 well plate format. […]\n0.7% agarose. […]"}, "MAX bHLHZip": {"biological_target": "MAX bHLHZip (Homo sapiens, UniProt P61244)", "sequence (P61244 23-102 limits assumed)": "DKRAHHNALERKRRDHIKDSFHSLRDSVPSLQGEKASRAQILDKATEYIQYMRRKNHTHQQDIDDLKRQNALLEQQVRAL", "assay": "SPR binding to MAX", "description": "The MYC SPR assay was carried out as described above with MYCbHLHZip immobilized to a level of 800–1000 RU. For kinetic binding experiments, a Langmuir 1:1 binding event was applied using the Biacore T200 Evaluation Software 2.0 (GE Healthcare) to determine association (ka) and dissociation (kd) constants of the compound and to calculate affinity (KD) by the formula; KD = kd/ka. Binding responses from equilibrium binding experiments were plotted against compound concentration and KD values were determined at 50% of the theoretical Rmax with the formula Rmax = (MW analyte/MW ligand) × immobilized ligand level on the chip (RU) × stoichiometry (1:1). Same coupling method described above was used to immobilize the control proteins. MAX was immobilized to approximately 2000 RU, MAD to 600 RU, BSA to 1000 RU, p53 to 3000 RU and BCL-XL, to 500 RU."}},
  "note": "Entries after “also recorded” stand apart in the source; their conditions may differ.",
  "data": [
    {"smiles": "CCOc1ccc2nc3cc(/N=N/c4ccc(N)nc4N)ccc3c(N)c2c1", "note": "[MYCMI-6]", "values": [
      {"measurement": "GI50", "setting": "[1]; Homo sapiens, SK-N-AS, 48 hours, resazurin", "value": "≥ 20", "unit": "µM"},
      {"measurement": "response of SK-N-F1 cell line", "setting": "[1]; SK-N-F1, 48 hours", "value": "essentially did not respond at all"},
      {"measurement": "MYCN:MAX interaction in tumors (isPLA)", "setting": "MYCN:MAX interaction", "value": "significant reduction"},
      {"measurement": "growth of wt (TGR-1) cells", "setting": "[2]", "value": "strongly inhibited growth"},
      {"measurement": "binding to MAX (SPR)", "setting": "MAX bHLHZip", "value": "negligible; also recorded: did not bind to MAX"}
    ]}
  ]
}
